The values below come from EP0991643B1 (SCHERING CORPORATION, priority 1997, dated 1998).

Experiment [1] has as its target T1, partially purified rat brain farnesyl protein transferase (FPT) (Rattus norvegicus, UniProt Q02293+Q04631).
T1 construct: partially purified rat brain farnesyl protein transferase (FPT); from tissue; host or cells: rat brain
Nature of the experiment: In vitro enzyme assay: inhibition of Ras-CVLS farnesylation by farnesyl protein transferase (FPT). The note with it: H-ras (Ras-CVLS) substrate; methods of WO 95/10515 or WO 95/10516. The format is biochemical. The procedure: (§1) 1. In vitro enzyme assays: FPT IC50 (inhibition of farnesyl protein transferase, in vitro enzyme assay) are determined by the methods disclosed in […] or WO 95/10516. […] 2. Cell-based assay. COS IC50 values refer to the COS cells activity inhibition of Ras processing, are determined by the methods disclosed in […] or WO 95/10516.

The subject of experiment [2] is Ras processing in COS cells. In words: Cell-based assay: inhibition of Ras processing in COS cells. The procedure:
as §1

T1 sequence (Q02293 whole entry, one chain of several): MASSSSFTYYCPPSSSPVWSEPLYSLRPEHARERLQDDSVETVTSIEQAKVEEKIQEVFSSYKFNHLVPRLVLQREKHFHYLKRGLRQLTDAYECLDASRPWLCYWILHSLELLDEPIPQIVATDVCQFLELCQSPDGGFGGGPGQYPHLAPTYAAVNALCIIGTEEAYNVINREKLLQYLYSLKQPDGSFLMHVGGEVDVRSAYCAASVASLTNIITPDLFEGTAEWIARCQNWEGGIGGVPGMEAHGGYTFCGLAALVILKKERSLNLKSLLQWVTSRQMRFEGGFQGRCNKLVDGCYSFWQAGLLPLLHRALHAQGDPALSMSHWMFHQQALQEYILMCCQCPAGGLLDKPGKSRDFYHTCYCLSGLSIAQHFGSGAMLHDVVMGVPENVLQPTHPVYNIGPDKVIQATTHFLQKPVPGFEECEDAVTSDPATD

In experiment [1], `O=C(CON=C1CCSCC1)N1CCC([C@H]2c3ncc(Br)cc3CCc3cc(Cl)cc(Br)c32)CC1` [Example 13] yielded an IC50 of 13 nM. This lies in the double-digit nanomolar range.

For `CC(C)(C)OC(=O)NOCC(=O)N1CCC([C@H]2c3ncc(Br)cc3CCc3cc(Cl)cc(Br)c32)CC1` [Example 5, (+)-1,1-Dimethylethyl-N-[2-[4-(3,10-dibromo-8-chloro-6,11-dihydro-5H-benzo[5,6]cyclohepta[1,2-b]pyridin-11(R)-yl)-1-piperidinyl]-2-oxoethoxy]carbamate], it took 170 nM to reach half-maximal inhibition in experiment [1] (IC50).

The compound `O=C(CO/N=C/c1ccccc1O)N1CCC([C@H]2c3ncc(Br)cc3CCc3cc(Cl)cc(Br)c32)CC1` [Example 7] returned a 50% inhibitory concentration (IC50) in experiment [1] of 370 nM.

For the compound `CC(=O)NOCC(=O)N1CCC([C@H]2c3ncc(Br)cc3CCc3cc(Cl)cc(Br)c32)CC1` [Example 14, (+)-N-[2-[4-(3,10-dibromo-8-chloro-6,11-dihydro-5H-benzo[5,6]cyclohepta[1,2-b]pyridin-11(R)-yl)-1-piperidinyl]-2-oxoethoxy]acetamide], the midpoint of inhibition in experiment [1], the IC50, lay at 31 nM.

The compound `O=C(CON=C1CCOCC1)N1CCC([C@H]2c3ncc(Br)cc3CCc3cc(Cl)cc(Br)c32)CC1` [Example 12] yielded an IC50 in experiment [1] of 12 nM.

As to `O=C(CON=C1CCC2(CC1)OCCO2)N1CCC([C@H]2c3ncc(Br)cc3CCc3cc(Cl)cc(Br)c32)CC1` [Example 11], 24 nM corresponded to half-maximal inhibition in experiment [1] (IC50).

Regarding `COc1ccc(/C(C)=N/OCC(=O)N2CCC([C@H]3c4ncc(Br)cc4CCc4cc(Cl)cc(Br)c43)CC2)cc1` [Example 3], the IC50 in experiment [1] stood at 180 nM.

As to `CC(C)=NOCC(=O)N1CCC([C@H]2c3ncc(Br)cc3CCc3cc(Cl)cc(Br)c32)CC1` [Example 2], the midpoint of inhibition in experiment [1], the IC50, lay at 6.5 nM.

In experiment [1], `C/C(=N\OCC(=O)N1CCC([C@H]2c3ncc(Br)cc3CCc3cc(Cl)cc(Br)c32)CC1)c1cccs1` [Example 9, (+)-4-(3,10-dibromo-8-chloro-6,11-dihydro-5H-benzo[5,6]cyclohepta[1,2-b]pyridin-11(R)-yl)-1-[[[[(E)-1-(2-thienyl)ethylidene]amino]oxy]acetyl]piperidine] had an IC50 of 150 nM. This IC50 lies about 23-fold higher than the previous one.

Regarding `O=C(CON=C1CCCCC1)N1CCC([C@H]2c3ncc(Br)cc3CCc3cc(Cl)cc(Br)c32)CC1` [Example 10, (+)-4-(3,10-dibromo-8-chloro-6,11-dihydro-5H-benzo[5,6]cyclohepta[1,2-b]pyridin-11(R)-yl)-1-[[[[(cyclohexylidene]amino]]oxy]acetyl]piperidine], it took 35 nM to reach half-maximal inhibition in experiment [1] (IC50). This IC50 lies about 4.3-fold lower than the previous one.

In experiment [1], `CC(C)=NOCCC(=O)N1CCC([C@H]2c3ncc(Br)cc3CCc3cc(Cl)cc(Br)c32)CC1` [Example 4, (+)-4-(3,10-dibromo-8-chloro-6,11-dihydro-5H-benzo[5,6]cyclohepta[1,2-b]pyridin-11(R)-yl)-1-[3-[[(1-methylethylidene]amino]oxy]-1-oxopropyl]piperidine] registered an IC50 of 54 nM.

In experiment [1], `C/C(=N\OCC(=O)N1CCC([C@H]2c3ncc(Br)cc3CCc3cc(Cl)cc(Br)c32)CC1)c1ccc(Cl)cc1` [Example 8, (+)-1-[[[[(E)-1-(4-chlorophenyl)ethylidene]amino]oxy]acetyl]-4-(3,10-dibromo-8-chloro-6,11-dihydro-5H-benzo[5,6]cyclohepta[1,2-b]pyridin-11(R)-yl)piperidine] displayed an IC50 above 180 nM.

As to `O=C(CO/N=C/c1cc[n+]([O-])cc1)N1CCC([C@H]2c3ncc(Br)cc3CCc3cc(Cl)cc(Br)c32)CC1` [Example 6], the figures for the IC50 in experiment [2] and in experiment [1] were 690 nM and 3.6 nM, respectively.

As a reminder, the IC50 is the concentration at which inhibition is half-maximal. High values mean a need for much substance, low ones inhibition by little substance.
